Laboratory results from EP0303391B1, “Optical isomers of a spiroquinuclidine derivative” (State of Israel Represented by the Prime Minister's Office …, priority 1987, dated 1989).
Like-named read-outs stand apart in the source and are kept apart here.

How the values were obtained:
[1] = biological target: T1, M₁ receptors (Rattus norvegicus, UniProt P08482); experiment: biochemical; type: binding; conditions: for a:c: ratio Ki(3H-PZ):Ki(3H-CD)
T1 sequence (P08482 1-460): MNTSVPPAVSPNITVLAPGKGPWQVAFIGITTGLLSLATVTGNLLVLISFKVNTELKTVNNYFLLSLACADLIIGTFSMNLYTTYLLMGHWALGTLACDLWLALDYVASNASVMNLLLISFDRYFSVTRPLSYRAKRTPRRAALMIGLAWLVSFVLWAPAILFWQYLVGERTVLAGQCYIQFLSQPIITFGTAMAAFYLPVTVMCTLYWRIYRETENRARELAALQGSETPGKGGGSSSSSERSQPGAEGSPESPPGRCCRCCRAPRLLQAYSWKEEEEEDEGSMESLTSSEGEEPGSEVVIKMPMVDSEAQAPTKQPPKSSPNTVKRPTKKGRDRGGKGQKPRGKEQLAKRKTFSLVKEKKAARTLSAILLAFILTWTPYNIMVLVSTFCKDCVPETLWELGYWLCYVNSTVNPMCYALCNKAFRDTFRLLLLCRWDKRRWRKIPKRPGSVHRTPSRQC

[2] = tested on: AF64A and saline-injected rats; experiment: Passive avoidance (step-through) retention in AF64A and saline-injected rats; type: in vivo, Sprague-Dawley rats; conditions: for Retention latency after 72 hours: 0.2mg./kg. per os post-training, cut-off 600 secs., nine rats per group; for net latencies of AF64A-treated groups compared with the group treated with double distilled water: p < 0.005 for (-)-, p < 0.05 for (±)-cis
Description: Ethylcholine aziridinium ion (hereinafter denoted AF64A) is a selective presynaptic cholinergic neurotoxin, which on intracerebroventricular injection in rats induces persistent cholinergic hypofunction that mimics the cortical and hippocampal cholinegic deficiency and the cognitive impairments reported in SDAT. Accordingly, the possibility of reversal of the AF64A-induced effects by (-)- and [for comparison] (±)-cis-2-methylspiro(1,3-oxathiolan-5,3′)quinuclidine in the passive avoidance task was studied. In this experiment, the results of which are reported in Table 4, we investigated the effect of these substances (0.2mg./kg/., per os) on the retention after 72 hours of an inhibitory learning (passive avoidance-step through) task in AF64A and saline-injected rats, using a post-training drug treatment paradigm. The surgery carried out on the test animals (Sprague-Dawley rats raised by Charles River) was similar to that described in our prior published European Patent Application No. 0205247. The behavioral studies were performed one month after surgery.
The behavioral testing procedure comprised two phases, 1 and 2. In a pretest training procedure each rat was individually placed in a small lighted front compartment of a two-compartment box. After a 60 secs. familiarization/adaptation period, the door separating the two compartments was opened and a clock activated. The rat's latency to enter the large dark compartment of the box (to step-through) was measured. Immediately following entry into the dark compartment, the rat was subjected to an inescapable scrambled foot shock applied to the grid floor (0.6mA for 3 secs.). Sixty secs. after the termination of the shock, at the end of the training procedure, the rat was removed from the dark compartment and double distilled water, (-)- and (±)-cis-2-methylspiro(1,3-oxathiolan-5,3′)quinuclidine were administered per os. Rats were then returned to their home cage. Retention of the passive avoidance task was measured […]. after training by again placing the rat in the lighted front compartment, and after a 60 secs. adaptation period, measuring the latency to enter the dark compartment. The test session ended when a rat entered the dark compartment or after 600 secs. had elapsed. […]

[3] = LD50 in mice; type: in vivo; conditions: mouse, in vivo, HCl salts, read-out: LD₅₀
Description: (§1) The LD₅₀ in mice of (+)-, (-) and [for comparison] There are no significant differences in the toxicity of the tested compounds.

[4] = tested on: isolated guinea pig ileum; experiment: Isolated guinea pig ileum induced contraction; type: cell-based
[5] = tested on: muscarinic receptors; type: binding, rat; conditions: for Ki: rat forebrain homogenates, mean ± spread (n), Ki = IC50 ÷ (1 + C/KD), read-out: Ki(^3H-QNB)
[6] = tested on: mice; experiment: LD50 in mice; type: in vivo; conditions: HCl salts
Description: as §1

[7] = biological target: muscarinic receptors; experiment: Displacement of 3H-cis-dioxolane (3H-CD) from rat forebrain homogenates; type: binding
[8] = index of M1 versus M2 selectivity

Question: For `CC1OC2(CS1)CN1CCC2CC1` (racemic) [(±)-cis-isomer, (±)-cis-2-methylspiro(1,3-oxathiolan-5,3')quinuclidine], which “a:b” value [1] is on record?
Answer: 0.10

Question: What about the Ki ([1]; Ki(^3H-PZ)) of the same molecule?
Answer: 600 nM

Question: And the “a:c” value [1, 8]?
Answer: 1.4

Question: And the “Retention latency after 72 hours” value ([2]; AF64A-treated rats)?
Answer: 407.9 (±72.1) seconds

Question: What about the “net latencies of AF64A-treated groups compared with the group treated with double distilled water” value ([2]; AF64A-treated rats) of the same molecule?
Answer: significantly longer

Question: What about the “Retention latency after 72 hours” value ([2]; saline-treated rats) of the same molecule?
Answer: 478.2 (±65.7) seconds

Question: And the LD50 ([3]; female mice)?
Answer: 40.8 mg/kg

Question: What about the LD50 ([3]; male mice) of the same molecule?
Answer: 45 mg/kg

Question: What about the type of activity [4] of the same molecule?
Answer: agonist

Question: Which “a:b” value [1] does the source give for `CC1OC2(CS1)CN1CCC2CC1` (racemic) [(±)-trans-isomer, (±)-trans-2-methylspiro(1,3-oxathiolan-5,3')quinuclidine] here?
Answer: 0.59

Question: What about the “a:c” value ([1]; index of M1 versus M2 selectivity, listed as 3) of the same molecule?
Answer: 8.1

Question: And the Ki ([1]; read-out: Ki(^3H-PZ))?
Answer: 14600 ± 2900 nM

Question: And the type of activity [4]?
Answer: agonist

Question: What does the source list for `CC1OC2(CS1)CN1CCC2CC1` (single isomer, unassigned; (+)) [(+)-cis-isomer, (+)-cis-2-methylspiro(1,3-oxathiolan-5,3')quinuclidine]?
Answer: Ki ([1]; Ki(^3H-PZ)): 9600 nM; LD50 ([3]; female mice): 45 mg/kg; LD50 ([3]; male mice): 39.1 mg/kg; type of activity [4]: inactive as agonist

Question: Which results are given for `CC1OC2(CS1)CN1CCC2CC1` (single isomer, unassigned; (-)) [(-)-cis-isomer, (-)-cis-2-methylspiro(1,3-oxathiolan-5,3')quinuclidine]?
Answer: Ki ([1]; Ki(^3H-PZ)): 1100 nM; Retention latency after 72 hours ([2]; AF64A-treated rats): 563.5 (±23.6) seconds; net latencies of AF64A-treated groups compared with the group treated with double distilled water ([2]; AF64A-treated rats): significantly longer; Retention latency after 72 hours ([2]; saline-treated rats): 474 (±61.3) seconds; times more potent in ³H-QNB displacement than its racemate ([5]; relative to (±)-cis-isomer): 2.2; LD₅₀ ([6]; female mice): 40 mg/kg; LD₅₀ ([6]; male mice): 35 mg/kg; type of activity [4]: agonist

Question: With `CC(=O)OCC[N+](C)(C)C` [Acetylcholine] as the molecule, how does the EC50 ([4]; Cavia porcellus, induced contraction of isolated guinea pig ileum) read?
Answer: 50 nM

Question: For `C[N+](C)(C)CC#CCOC(=O)Nc1cccc(Cl)c1` [McN-A-343], which “a:b” value [1] is on record?
Answer: 0.35

Question: What about the Ki ([1]; Ki(^3H-PZ)) of the same molecule?
Answer: 4900 nM

Question: And the “a:c” value [1, 8]?
Answer: 12.25

Question: What about the Ki ([7]; mean ± spread (n), Ki = IC50 ÷ (1 + C/KD)) of the same molecule?
Answer: 400 ± 100 nM

Question: And the Ki [5]?
Answer: 14200 ± 1410 nM

Question: For `O=C1CCCN1CC#CCN1CCCC1` [Oxotremorine], which Ki ([1]; Ki(^3H-PZ)) is on record?
Answer: 600 nM

Question: And the “a:c” value [1, 8]?
Answer: 625

Question: What about the “a:b” value ([1]; ratio Ki(3H-PZ):Ki(3H-QNB), index of M1 versus M2 selectivity) of the same molecule?
Answer: 0.35

Question: And the Ki ([7]; footnote *: expressed in M x 10^-10)?
Answer: 0.96 ± 0.42 nM

Question: What about the Ki [5] of the same molecule?
Answer: 1700 ± 300 nM
